Test results taken from ChEMBL document CHEMBL1909046, “DrugMatrix in vitro pharmacology data”.

Target: T1, Amine oxidase [flavin-containing] A (Homo sapiens, UniProt P21397)
T1 sequence (P21397 whole entry): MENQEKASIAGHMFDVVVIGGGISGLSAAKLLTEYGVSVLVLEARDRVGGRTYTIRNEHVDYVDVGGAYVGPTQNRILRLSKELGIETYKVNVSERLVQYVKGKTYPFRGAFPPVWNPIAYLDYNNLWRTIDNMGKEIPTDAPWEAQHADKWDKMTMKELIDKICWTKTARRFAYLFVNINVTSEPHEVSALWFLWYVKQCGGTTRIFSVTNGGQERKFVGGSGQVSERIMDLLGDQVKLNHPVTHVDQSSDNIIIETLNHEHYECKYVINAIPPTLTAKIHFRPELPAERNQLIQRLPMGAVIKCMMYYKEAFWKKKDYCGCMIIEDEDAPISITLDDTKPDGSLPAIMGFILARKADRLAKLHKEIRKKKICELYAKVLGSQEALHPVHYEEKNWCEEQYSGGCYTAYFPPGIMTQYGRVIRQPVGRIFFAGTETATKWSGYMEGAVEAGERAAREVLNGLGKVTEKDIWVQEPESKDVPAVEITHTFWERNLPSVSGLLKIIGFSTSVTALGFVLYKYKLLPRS
Test: DRUGMATRIX: Monoamine Oxidase MAO-A enzyme inhibition (substrate: Kynuramine)
Design: species or system BTI-TN-5B1-4
Conditions: bti-tn-5b1-4; Not Active = under 50% inhibition at 10 µM

Question: With `CN1CCN(C(c2ccccc2)c2ccccc2)CC1` [CYCLIZINE] as the compound, how does the IC50 read?
Answer: Its IC50 is “Not Active”.

Question: For `CN1C[C@@H]2C[C@H]1CN2c1cc2c(cc1F)c(=O)c(C(=O)O)cn2C1CC1` [DANOFLOXACIN], which IC50 is on record?
Answer: The IC50 was “Not Active”.

Question: For `COc1cccc2c1C(=O)c1c(O)c3c(c(O)c1C2=O)C[C@@](O)(C(C)=O)C[C@@H]3O[C@H]1C[C@H](N)[C@H](O)[C@H](C)O1` [DAUNORUBICIN], which IC50 is on record?
Answer: Its IC50 is “Not Active”.

Question: With `O=C(O)c1cc(-c2ccc(F)cc2F)ccc1O` [DIFLUNISAL] as the compound, how does the IC50 read?
Answer: The IC50 was “Not Active”.

Question: For `C[S+](C)[O-]` [DIMETHYL SULFOXIDE], which IC50 is on record?
Answer: Its IC50 is “Not Active”.

Question: For `CC1=NN(c2ccccc2)C(=O)C1` [EDARAVONE], which IC50 is on record?
Answer: The IC50 was “Not Active”.

Target: Sodium-dependent dopamine transporter (Homo sapiens, UniProt Q01959)
Test: DRUGMATRIX: Dopamine Transporter radioligand binding (ligand: [125I] RTI-55)
Format: cell membranes, CHO-K1, Membrane
Conditions: Not Active = under 50% inhibition at 10 µM; read-out: IC50

Sodium-dependent dopamine transporter, sequence (Q01959 whole entry): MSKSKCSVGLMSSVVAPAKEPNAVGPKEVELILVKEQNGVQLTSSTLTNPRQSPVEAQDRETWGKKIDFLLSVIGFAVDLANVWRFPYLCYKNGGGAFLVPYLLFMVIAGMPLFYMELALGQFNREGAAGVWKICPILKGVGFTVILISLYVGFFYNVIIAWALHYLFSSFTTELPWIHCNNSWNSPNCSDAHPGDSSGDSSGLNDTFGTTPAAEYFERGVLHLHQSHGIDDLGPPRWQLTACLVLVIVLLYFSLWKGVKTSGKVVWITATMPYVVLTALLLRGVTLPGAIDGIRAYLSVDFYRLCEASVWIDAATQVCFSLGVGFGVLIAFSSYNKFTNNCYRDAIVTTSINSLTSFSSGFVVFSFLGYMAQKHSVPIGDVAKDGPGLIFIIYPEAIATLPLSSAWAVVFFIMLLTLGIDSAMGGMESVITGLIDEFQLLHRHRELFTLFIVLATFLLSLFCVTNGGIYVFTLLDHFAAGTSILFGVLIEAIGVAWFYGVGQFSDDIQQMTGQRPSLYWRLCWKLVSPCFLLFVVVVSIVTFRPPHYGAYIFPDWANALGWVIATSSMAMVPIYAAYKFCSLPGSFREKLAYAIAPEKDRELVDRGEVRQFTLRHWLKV

Question: Which IC50 does the source give for `CN1CCN(C(c2ccccc2)c2ccccc2)CC1` [CYCLIZINE] here?
Answer: The IC50 was 0.763 µM.

Same assay, conditions: Not Active = under 50% inhibition at 10 µM; read-out: Ki

Question: With `CN1CCN(C(c2ccccc2)c2ccccc2)CC1` [CYCLIZINE] as the compound, how does the Ki read?
Answer: The Ki was 0.606 µM.

Same assay, conditions: cho-k1; Not Active = under 50% inhibition at 10 µM

Question: For `CN1C[C@@H]2C[C@H]1CN2c1cc2c(cc1F)c(=O)c(C(=O)O)cn2C1CC1` [DANOFLOXACIN], which IC50 is on record?
Answer: The IC50 was “Not Active”.

Question: With `COc1cccc2c1C(=O)c1c(O)c3c(c(O)c1C2=O)C[C@@](O)(C(C)=O)C[C@@H]3O[C@H]1C[C@H](N)[C@H](O)[C@H](C)O1` [DAUNORUBICIN] as the compound, how does the IC50 read?
Answer: The IC50 was “Not Active”.

Question: Which IC50 does the source give for `O=C(O)c1cc(-c2ccc(F)cc2F)ccc1O` [DIFLUNISAL] here?
Answer: Its IC50 is “Not Active”.

Question: Which IC50 does the source give for `C[S+](C)[O-]` [DIMETHYL SULFOXIDE] here?
Answer: The IC50 was “Not Active”.

Question: Which IC50 does the source give for `CC1=NN(c2ccccc2)C(=O)C1` [EDARAVONE] here?
Answer: Its IC50 is “Not Active”.

Target: T2, Alpha-1D adrenergic receptor (Homo sapiens, UniProt P25100); further: in other assays of this panel Not Active means under 50% inhibition at 10 µM
T2 sequence (P25100 whole entry): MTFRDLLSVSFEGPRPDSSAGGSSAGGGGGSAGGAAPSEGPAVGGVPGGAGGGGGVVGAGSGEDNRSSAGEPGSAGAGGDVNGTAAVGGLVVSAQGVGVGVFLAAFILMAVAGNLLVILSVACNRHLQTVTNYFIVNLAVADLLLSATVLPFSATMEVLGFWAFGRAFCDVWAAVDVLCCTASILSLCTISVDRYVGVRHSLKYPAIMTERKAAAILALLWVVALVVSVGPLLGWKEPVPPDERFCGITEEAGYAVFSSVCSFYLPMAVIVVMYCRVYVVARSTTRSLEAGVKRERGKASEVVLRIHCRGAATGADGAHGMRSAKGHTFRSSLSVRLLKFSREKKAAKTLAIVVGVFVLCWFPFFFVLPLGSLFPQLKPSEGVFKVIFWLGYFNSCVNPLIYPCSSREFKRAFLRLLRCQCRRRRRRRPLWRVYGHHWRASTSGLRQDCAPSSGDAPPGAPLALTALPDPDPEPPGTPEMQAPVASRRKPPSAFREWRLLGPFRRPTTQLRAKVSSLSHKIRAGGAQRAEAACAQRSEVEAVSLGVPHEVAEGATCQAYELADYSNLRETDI
Format: cell membranes, HEK293, Membrane
Conditions: hek293

Question: For `CN1C[C@@H]2C[C@H]1CN2c1cc2c(cc1F)c(=O)c(C(=O)O)cn2C1CC1` [DANOFLOXACIN], which IC50 is on record?
Answer: Its IC50 is “Not Active”.

Question: With `COc1cccc2c1C(=O)c1c(O)c3c(c(O)c1C2=O)C[C@@](O)(C(C)=O)C[C@@H]3O[C@H]1C[C@H](N)[C@H](O)[C@H](C)O1` [DAUNORUBICIN] as the compound, how does the IC50 read?
Answer: Its IC50 is “Not Active”.

Question: Which IC50 does the source give for `O=C(O)c1cc(-c2ccc(F)cc2F)ccc1O` [DIFLUNISAL] here?
Answer: The IC50 was “Not Active”.

Question: Which IC50 does the source give for `C[S+](C)[O-]` [DIMETHYL SULFOXIDE] here?
Answer: The IC50 was “Not Active”.

Question: For `CC1=NN(c2ccccc2)C(=O)C1` [EDARAVONE], which IC50 is on record?
Answer: The IC50 was “Not Active”.

Same assay, conditions: read-out: IC50

Question: With `CN1CCN(C(c2ccccc2)c2ccccc2)CC1` [CYCLIZINE] as the compound, how does the IC50 read?
Answer: Its IC50 is 1.21 µM.

Same assay, conditions: read-out: Ki

Question: For `CN1CCN(C(c2ccccc2)c2ccccc2)CC1` [CYCLIZINE], which Ki is on record?
Answer: The Ki was 0.597 µM.

Target: T3, Neuropeptide Y receptor type 1 (Homo sapiens, UniProt P25929); further: in other assays of this panel Not Active means under 50% inhibition at 10 µM
T3 sequence (P25929 whole entry): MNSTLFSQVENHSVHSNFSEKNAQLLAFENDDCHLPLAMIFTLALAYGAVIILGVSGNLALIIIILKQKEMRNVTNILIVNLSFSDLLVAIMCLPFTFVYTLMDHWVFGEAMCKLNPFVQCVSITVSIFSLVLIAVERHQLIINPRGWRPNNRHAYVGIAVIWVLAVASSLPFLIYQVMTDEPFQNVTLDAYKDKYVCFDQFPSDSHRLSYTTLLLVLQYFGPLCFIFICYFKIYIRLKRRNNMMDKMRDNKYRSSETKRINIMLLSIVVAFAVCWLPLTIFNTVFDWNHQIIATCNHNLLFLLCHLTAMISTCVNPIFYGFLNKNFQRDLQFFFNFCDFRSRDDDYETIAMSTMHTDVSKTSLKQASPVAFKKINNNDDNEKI
Format: cell membranes, Membrane
Conditions: sk-n-mc

Question: With `CN1CCN(C(c2ccccc2)c2ccccc2)CC1` [CYCLIZINE] as the compound, how does the IC50 read?
Answer: Its IC50 is “Not Active”.

Question: Which IC50 does the source give for `CN1C[C@@H]2C[C@H]1CN2c1cc2c(cc1F)c(=O)c(C(=O)O)cn2C1CC1` [DANOFLOXACIN] here?
Answer: The IC50 was “Not Active”.

Question: Which IC50 does the source give for `COc1cccc2c1C(=O)c1c(O)c3c(c(O)c1C2=O)C[C@@](O)(C(C)=O)C[C@@H]3O[C@H]1C[C@H](N)[C@H](O)[C@H](C)O1` [DAUNORUBICIN] here?
Answer: The IC50 was “Not Active”.

Question: With `O=C(O)c1cc(-c2ccc(F)cc2F)ccc1O` [DIFLUNISAL] as the compound, how does the Ki read?
Answer: Its Ki is “Not Active”.

Question: With `C[S+](C)[O-]` [DIMETHYL SULFOXIDE] as the compound, how does the IC50 read?
Answer: The IC50 was “Not Active”.

Question: For `CC1=NN(c2ccccc2)C(=O)C1` [EDARAVONE], which IC50 is on record?
Answer: Its IC50 is “Not Active”.

Target: T4, B2 bradykinin receptor (Homo sapiens, UniProt P30411); further: in other assays of this panel Not Active means under 50% inhibition at 10 µM
T4 sequence (P30411 whole entry): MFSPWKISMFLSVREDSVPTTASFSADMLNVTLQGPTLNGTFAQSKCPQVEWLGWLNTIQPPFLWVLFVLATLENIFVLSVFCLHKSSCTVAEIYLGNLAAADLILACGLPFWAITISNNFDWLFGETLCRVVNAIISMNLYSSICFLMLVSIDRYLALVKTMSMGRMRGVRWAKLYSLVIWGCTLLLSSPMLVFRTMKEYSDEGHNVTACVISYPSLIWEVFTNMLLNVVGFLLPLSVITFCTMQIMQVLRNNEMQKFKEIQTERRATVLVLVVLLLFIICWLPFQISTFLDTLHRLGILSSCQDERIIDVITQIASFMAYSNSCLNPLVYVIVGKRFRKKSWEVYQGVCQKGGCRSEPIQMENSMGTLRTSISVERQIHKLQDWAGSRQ
Format: cell membranes, Membrane
Conditions: chem-1

Question: With `CN1CCN(C(c2ccccc2)c2ccccc2)CC1` [CYCLIZINE] as the compound, how does the IC50 read?
Answer: Its IC50 is “Not Active”.

Question: With `CN1C[C@@H]2C[C@H]1CN2c1cc2c(cc1F)c(=O)c(C(=O)O)cn2C1CC1` [DANOFLOXACIN] as the compound, how does the IC50 read?
Answer: The IC50 was “Not Active”.

Question: Which IC50 does the source give for `COc1cccc2c1C(=O)c1c(O)c3c(c(O)c1C2=O)C[C@@](O)(C(C)=O)C[C@@H]3O[C@H]1C[C@H](N)[C@H](O)[C@H](C)O1` [DAUNORUBICIN] here?
Answer: The IC50 was “Not Active”.

Question: With `O=C(O)c1cc(-c2ccc(F)cc2F)ccc1O` [DIFLUNISAL] as the compound, how does the IC50 read?
Answer: The IC50 was “Not Active”.

Question: For `C[S+](C)[O-]` [DIMETHYL SULFOXIDE], which IC50 is on record?
Answer: The IC50 was “Not Active”.

Question: With `CC1=NN(c2ccccc2)C(=O)C1` [EDARAVONE] as the compound, how does the IC50 read?
Answer: The IC50 was “Not Active”.

Test system: not listed separately
Test: DRUGMATRIX: Phorbol Ester radioligand binding (ligand: [3H] PDBu)
Format: cell membranes, Mus musculus, ICR, Brain, Membrane
Conditions: Not Active = under 50% inhibition at 10 µM

Question: For `CN1CCN(C(c2ccccc2)c2ccccc2)CC1` [CYCLIZINE], which IC50 is on record?
Answer: Its IC50 is “Not Active”.

Question: What about the Ki of the same compound?
Answer: Its Ki is “Not Active”.

Question: Which IC50 does the source give for `CN1C[C@@H]2C[C@H]1CN2c1cc2c(cc1F)c(=O)c(C(=O)O)cn2C1CC1` [DANOFLOXACIN] here?
Answer: The IC50 was “Not Active”.

Question: And the Ki?
Answer: The Ki was “Not Active”.

Question: With `COc1cccc2c1C(=O)c1c(O)c3c(c(O)c1C2=O)C[C@@](O)(C(C)=O)C[C@@H]3O[C@H]1C[C@H](N)[C@H](O)[C@H](C)O1` [DAUNORUBICIN] as the compound, how does the IC50 read?
Answer: Its IC50 is “Not Active”.

Question: What about the Ki of the same compound?
Answer: Its Ki is “Not Active”.

Question: For `O=C(O)c1cc(-c2ccc(F)cc2F)ccc1O` [DIFLUNISAL], which IC50 is on record?
Answer: The IC50 was “Not Active”.

Question: What about the Ki of the same compound?
Answer: The Ki was “Not Active”.

Question: Which IC50 does the source give for `C[S+](C)[O-]` [DIMETHYL SULFOXIDE] here?
Answer: The IC50 was “Not Active”.

Question: And the Ki?
Answer: The Ki was “Not Active”.

Question: What does the source list for `CC1=NN(c2ccccc2)C(=O)C1` [EDARAVONE]?
Answer: IC50: Not Active; Ki: Not Active
